These results are taken from publication PMC11435093, “Synthesis and Evaluation of ^99mTc(CO)3 Complexes with Ciprofloxacin Dithiocarbamate for Infection Imaging” (Pharmaceutics, 2024).

The nature of data set [1]: Lipophilicity: partition between n-octanol and PBS pH 7.4. The data set is classed as physicochemical. Conditions: n-octanol/PBS pH 7.4, M: 99mTc, three determinations. The protocol: The lipophilicity of HPLC purified technetium-99m complexes 1′–6′ was determined by measuring the partition coefficient (logD7.4) between n-octanol and phosphate-buffered saline (PBS, pH 7.4) based on established literature methods and is briefly described here. An aliquot of each technetium-99m complex was added to a mixture of equal volumes (2.0 mL each) of n-octanol and PBS (pH 7.4) in a 5 mL centrifuge tube. The mixture was vigorously vortexed for 2 min and then centrifuged at 5000 rpm for 5 min to ensure complete phase separation. After centrifugation, 0.1 mL aliquots from both the n-octanol and PBS phases were sampled and their radioactivity was measured using a gamma counter. The log P was calculated using the following equation: […]. The procedure was repeated three times for each complex to ensure reproducibility.

Data set [2] relates to Swiss Albino mice with induced infection (Staphylococcus aureus) and aseptic inflammation (turpentine). The data set can be described thus: Biodistribution in mice with induced infection and aseptic inflammation. Format: in vivo. The procedure:
The in vivo behavior of HPLC purified technetium-99m complexes 1′–6′ was evaluated through biodistribution studies in Swiss Albino mice (40 ± 5 g) with induced infection and aseptic inflammation. The experiment was conducted in accordance with the guidelines for the protection of animals used for scientific purposes. Mice were divided into groups and prepared for biodistribution studies by inducing infection and aseptic inflammation. Twenty-four hours prior to the injection of the technetium complexes, the left thigh muscle of each mouse was inoculated with 50 µL of a Staphylococcus aureus suspension (1 × 10^6 CFU/mL) to induce infection. Aseptic inflammation was induced in the right thigh muscle by injecting 50 µL of turpentine oil. The technetium-99m complexes were administered intravenously via the tail vein. Each mouse received an injection of 0.037 MBq of the respective technetium-99m complex. The biodistribution was studied at two different time points, 15 min and 120 min post-injection. At each time point, the mice were sacrificed under anesthesia. Blood samples were obtained by cardiac puncture. The organs of interest were collected after dissection, including the liver, heart, kidneys, stomach, intestines, spleen, muscle (normal, infected, and inflamed), lungs, pancreas, and urinary bladder. The organs were made free from adhering tissues and transferred into pre-weighed counting vials. The radioactivity of the collected samples was measured using a shielded well-type gamma counter. The results were expressed as a percentage of injected dose per gram of tissue (% ID/g). The radioactivity ratios in infected muscle to normal muscle and inflamed muscle to normal muscle were calculated to assess the specificity and selectivity of the technetium complexes for infection and inflammation.

Data set [3] can be described thus: Stability of HPLC-purified 99mTc complexes (HPLC). Format: physicochemical. Conditions: HPLC-purified complex, room temperature, periodic HPLC. The procedure: (§1) The preparation of the ^99mTc-labeled complexes from synthesis to HPLC purification was completed within 1.5 h. Then, the stability of HPLC purified technetium-99m complexes 1′–6, with an RCP of 99% (based on HPLC), was assessed by monitoring their RCP over time and under various conditions using HPLC analysis based on established literature methods and is briefly described here.
After purification by HPLC, the stability of the isolated technetium-99m complexes was evaluated over 6 h. The purified complexes were stored at room temperature, and aliquots were taken at 1, 3, and 6 h for HPLC analysis.

Data set [4] can be described thus: Cysteine and histidine challenge (transchelation). The data set is classed as physicochemical. Conditions: 37 °C, 6 h. The procedure:
as §1
Challenge experiments were performed by incubating the purified complexes with 10^−3 M solutions of cysteine and histidine at 37 °C. For each complex (1′–6′), 0.2 mL of the purified complex was mixed with 0.2 mL of the cysteine or histidine solution and incubated for 6 h. Aliquots were taken at the end of the incubation period and analyzed by HPLC.

Substance “fac-[^99mTc(CO)3(Cip-DTC)(H2O)] [complex 1′]” came in with a LogD7.4 in data set [1] of 1.2. Besides, in data set [2] (15 min post i.v. injection), the “Infection (S. aureus infected muscle) radioactivity” value was found to be 1.06 ± 0.20 %ID/g, the Intestines radioactivity is on record as 0.71 ± 0.11 %ID/g, the Kidneys radioactivity came to 5.16 ± 0.32 %ID/g and the Liver radioactivity amounted to 22.05 ± 1.40 %ID/g. In addition, in data set [2] (15 min post i.v. injection), the Lungs radioactivity came to 6.41 ± 1.14 %ID/g, the “Muscle (normal) radioactivity” value was found to be 0.18 ± 0.02 %ID/g, the Pancreas radioactivity stood at 0.91 ± 0.04 %ID/g and the Spleen radioactivity is 9.79 ± 1.69 %ID/g. Further, in data set [2] (15 min post i.v. injection), the Stomach radioactivity was 0.91 ± 0.20 %ID/g. Moreover, in data set [2] (120 min post i.v. injection), the Kidneys radioactivity was determined as 5.76 ± 0.65 %ID/g, the Liver radioactivity is recorded as 25.96 ± 2.23 %ID/g, the Lungs radioactivity is given as 4.33 ± 0.41 %ID/g and the “Muscle (normal) radioactivity” value amounted to 0.18 ± 0.01 %ID/g. Further, the Spleen radioactivity in data set [2] (120 min post i.v. injection) was determined as 5.24 ± 0.45 %ID/g. For the same substance, the “blood clearance / blood radioactivity course” value in data set [2] (within 120 min) is “slow blood clearance”. In addition, in data set [3], the “stability post-purification (integrity, HPLC)” value was 92%. The substance also returned a stability in cysteine in data set [4] (10^-3 M cysteine) of 90%. This substance displayed a stability in histidine in data set [4] (10^-3 M histidine) of 91%.
